Measured values from patent US20230218632A1, “CYCLIC SULFONAMIDE DERIVATIVES AS TRAP1 MODULATORS AND USES THEREOF” (Amathus Therapeutics, Inc., priority 2020, published 2023).

Target: T1, TRAP1 enzyme (Homo sapiens, UniProt Q12931)
T1 sequence (Q12931 60-704): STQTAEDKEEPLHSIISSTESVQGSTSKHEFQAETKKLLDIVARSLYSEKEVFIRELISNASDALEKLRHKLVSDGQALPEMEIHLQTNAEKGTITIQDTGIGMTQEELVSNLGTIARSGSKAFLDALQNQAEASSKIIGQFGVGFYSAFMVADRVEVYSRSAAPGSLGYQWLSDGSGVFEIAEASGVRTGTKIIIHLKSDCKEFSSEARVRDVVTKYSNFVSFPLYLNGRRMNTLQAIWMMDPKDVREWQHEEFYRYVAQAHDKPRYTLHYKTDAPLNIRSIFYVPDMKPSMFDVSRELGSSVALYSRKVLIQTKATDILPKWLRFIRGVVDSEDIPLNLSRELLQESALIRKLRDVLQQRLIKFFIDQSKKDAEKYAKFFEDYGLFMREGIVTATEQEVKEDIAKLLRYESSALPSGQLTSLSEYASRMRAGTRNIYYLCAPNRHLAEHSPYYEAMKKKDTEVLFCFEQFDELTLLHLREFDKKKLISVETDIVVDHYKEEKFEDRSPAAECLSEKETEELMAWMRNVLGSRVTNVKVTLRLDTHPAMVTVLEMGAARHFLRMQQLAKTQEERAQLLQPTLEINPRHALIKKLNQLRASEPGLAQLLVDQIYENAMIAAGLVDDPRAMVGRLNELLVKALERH
Assay: ADP Glo assay (ATPase activity of TRAP1)
Assay type: biochemical
Conditions: for EC50: 150 nM Trap1, 20 µM ATP, concentration for half maximal activation, read-out: ADP GLO DRC: GeoMean EC50; for Emax: maximal percent activation, read-out: ADP GLO DRC: Mean Emax
Protocol: Potency of test compounds to modulate the ATPase activity of TRAP1 enzyme was evaluated using ADP Glo assay. The assay is based on quantification of the ADP generated from ATP in the ATPase reaction. The assay is performed in two steps; first, after the ATPase reaction, an equal volume of ADP-Glo™ Reagent is added to terminate the ATPase reaction and deplete the remaining ATP. Second, the Kinase Detection Reagent is added to simultaneously convert ADP to ATP and allow the newly synthesized ATP to be measured using a luciferase/luciferin reaction.
All the assays were carried out in a 384-well Proxiplate. The buffer used was 25 mM Pipes pH-7.5, 40 mM KCl, 0.05 mM MgCl2, 0.025 % BSA, 0.316 mM EGTA, 0.003% Empigen, 0.01% Igepal. 150 nM Trap1 enzyme was incubated with various concentrations of the test compound (0.79 µM - 100 µM) at 37° C. for 30 mins (except in blank wells). 20 µM ATP was added to each well to start the reaction. The plate was spun for 1 min at 1200 rpm and then incubated at 37° C. for 60 mins. 5 µl of ADP Glo reagent was added to all the wells and spun the plate for 1 min at 1200 rpm and kept it on a shaker at ambient temperature for 60 mins. 10 µl of kinase detection mix was added to all the wells and the plate was read for Luminescence at 495 nm. The amount of ADP released was estimated from ATP/ADP standard curve generated at the same experimental conditions. Emax (Maximal percent activation) and EC50 (concentration for half maximal activation ) were estimated by fitting the dose response data to a sigmoidal curve fitting equation using Graphpad Prism software V. 8.

Row | Compound | EC50 [µM] | Emax [%]
1 | CN1CCc2scc(C(=O)Nc3ccc4c(c3)S(=O)(=O)N(c3ccc(C(F)(F)F)cc3)CCO4)c2C1 [Compound 2472] | 30 to 100 | 150 to 200
2 | Cc1ncsc1C(=O)Nc1ccc2c(c1)S(=O)(=O)N(c1ccc(C(F)(F)F)cc1)CCO2 [Compound 2058, N-(1,1-Dioxido-2-(4-(Trifluoromethyl)Phenyl)-3,4-Dihydro-2H-Benzo[b][1,4,5]Oxathiazepin-8-yl)-4-Methylthiazole-5-Carboxamide] | < 20 | 150 to 200
3 | Cn1cccc(C(=O)Nc2ccc3c(c2)S(=O)(=O)N(c2ccc(C(F)(F)F)cc2)CCO3)c1=O [Compound 2268] | < 20 | 150 to 200
4 | Cc1cc(C(=O)Nc2ccc3c(c2)S(=O)(=O)N(c2ccc(C(F)(F)F)cc2)CCO3)n(C)n1 [Compound 2339] | < 20 | 129 to 149
5 | Cc1cc(C(=O)Nc2cnc3c(c2)S(=O)(=O)N(c2ccc(C(F)(F)F)cc2)CCO3)cc(C)n1 [Compound 2515] | 20 to 30 | > 200
6 | Cc1cnccc1C(=O)Nc1ccc2c(c1)S(=O)(=O)N(c1ccc(C(F)(F)F)cc1)CCO2 [Compound 2199] | 20 to 30 | 150 to 200
7 | Cc1oncc1C(=O)Nc1ccc2c(c1)S(=O)(=O)N(c1ccc(C(F)(F)F)cc1)CCO2 [Compound 2345] | 30 to 100 | 150 to 200
8 | O=C(Nc1ccc2c(c1)S(=O)(=O)N(c1ccc(C(F)(F)F)cc1)CCO2)c1cscn1 [Compound 2184] | < 20 | 129 to 149
9 | CCn1cncc1C(=O)Nc1ccc2c(c1)S(=O)(=O)N(c1ccc(C(F)(F)F)cc1)CCO2 [Compound 2213] | < 20 | 150 to 200
10 | Cc1ncc(C(=O)Nc2ccc3c(c2)S(=O)(=O)N(c2ccc(C(F)(F)F)cc2)CCO3)n1C [Compound 2355] | < 20 | > 200
11 | O=C(Nc1ccc2c(c1)S(=O)(=O)N(c1ccc(C(F)(F)F)cc1)CCO2)c1csc(-c2ccccc2)n1 [Compound 2503] | 30 to 100 | 129 to 149
12 | O=C(Nc1ccc2c(c1)S(=O)(=O)N(c1ccc(C(F)(F)F)cc1)CCO2)c1csc2c1CNCC2 [Compound 2433] | 30 to 100 | > 200
13 | Cc1c(C(=O)Nc2ccc3c(c2)S(=O)(=O)N(c2ccc(C(F)(F)F)cc2)CCO3)cnn1C [Compound 2295] | 30 to 100 | > 200
14 | Cc1ncoc1C(=O)Nc1ccc2c(c1)S(=O)(=O)N(c1ccc(C(F)(F)F)cc1)CCC2 [Compound 2458] | < 20 | 129 to 149
15 | Cc1ccncc1C(=O)Nc1ccc2c(c1)S(=O)(=O)N(c1ccc(C(F)(F)F)cc1)CCO2 [Compound 1212, N-(1,1-Dioxido-2-(4-(Trifluoromethyl)Phenyl)-3,4-Dihydro-2H-Benzo[b][1,4,5]Oxathiazepin-8-yl)-4-Methylnicotinamide] | 20 to 30 | 150 to 200
16 | COc1ccc(N2CCOc3ccc(NC(=O)c4ncoc4C)cc3S2(=O)=O)cc1 [Compound 2167, N-(2-(4-methoxyphenyl)-1,1-dioxido-3,4-dihydro-2H-benzo[b][1,4,5]oxathiazepin-8-yl)-5-methyloxazole-4-carboxamide] | 30 to 100 | 150 to 200
17 | O=C(Nc1ccc2c(c1)S(=O)(=O)N(c1ccc(C(F)(F)F)cc1)CCO2)c1c(F)cncc1F [Compound 2198] | 20 to 30 | 150 to 200
18 | O=C(Nc1ccc2c(c1)S(=O)(=O)N(c1ccc(C(F)(F)F)cc1)CCO2)c1cccnc1 [Compound 2240] | 30 to 100 | 150 to 200
19 | Cc1ncoc1C(=O)Nc1ccc2c(c1)S(=O)(=O)N(c1ccc(C(F)(F)F)nc1)CCO2 [Compound 2388] | 30 to 100 | 150 to 200
20 | Cc1ccc(N2CCOc3ccc(NC(=O)c4ncoc4C)cc3S2(=O)=O)cc1 [Compound 2362] | 30 to 100 | 150 to 200
21 | Cc1cnncc1C(=O)Nc1ccc2c(c1)S(=O)(=O)N(c1ccc(C(F)(F)F)cc1)CCO2 [Compound 2275] | 30 to 100 | 150 to 200
22 | Cc1ocnc1C(=O)Nc1ccc2c(c1)S(=O)(=O)N(c1ccc(C#N)cc1)CCO2 [Compound 2377, N-(2-(4-cyanophenyl)-1,1-dioxido-3,4-dihydro-2H-benzo[b][1,4,5]oxathiazepin-8-yl)-5-methyloxazole-4-carboxamide] | 30 to 100 | 150 to 200

Second part, the molecule after the results:

Row | EC50 [µM] | Emax [%] | Compound
23 | 30 to 100 | > 200 | Cc1nn(C)cc1C(=O)Nc1ccc2c(c1)S(=O)(=O)N(c1ccc(C(F)(F)F)cc1)CCO2 [Compound 2219]
24 | 20 to 30 | 150 to 200 | CC(C)n1cncc1C(=O)Nc1ccc2c(c1)S(=O)(=O)N(c1ccc(C(F)(F)F)cc1)CCO2 [Compound 2439]
25 | 30 to 100 | 150 to 200 | Cc1ccnc(C(=O)Nc2ccc3c(c2)S(=O)(=O)N(c2ccc(C(F)(F)F)cc2)CCO3)n1 [Compound 2261]
26 | 30 to 100 | > 200 | O=C(Nc1ccc2c(c1)S(=O)(=O)N(c1ccc(C(F)(F)F)cc1)CCO2)c1ccnc(CO)c1 [Compound 2290]
27 | < 20 | 150 to 200 | Cc1cnc(C(=O)Nc2ccc3c(c2)S(=O)(=O)N(c2ccc(C(F)(F)F)cc2)CCO3)nc1 [Compound 2210]
28 | 30 to 100 | 150 to 200 | Cc1ncc(C(=O)Nc2ccc3c(c2)S(=O)(=O)N(c2ccc(C(F)(F)F)cc2)CCO3)c(C)n1 [Compound 2236]
29 | 30 to 100 | 150 to 200 | CC(C)c1scnc1C(=O)Nc1ccc2c(c1)S(=O)(=O)N(c1ccc(C(F)(F)F)cc1)CCO2 [Compound 2085, N-(1,1-Dioxido-2-(4-(Trifluoromethyl)phenyl)-3,4-Dihydro-2H-Benzo[b][1,4,5]Oxathiazepin-8-yl)-5-Isopropylthiazole-4-Carboxamide]
30 | 20 to 30 | 150 to 200 | Cc1cc(C(=O)Nc2ccc3c(c2)S(=O)(=O)N(c2ccc(C(F)(F)F)cc2)CCO3)ccn1 [Compound 2172]
31 | 30 to 100 | > 200 | O=C(Nc1ccc2c(c1)S(=O)(=O)N(c1ccc(C(F)(F)F)cc1)CCO2)c1cnco1 [Compound 1994, n-(1,1-Dioxido-2-(4-(Trifluoromethyl) Phenyl)-3,4-Dihydro-2H-Benzo[b][1,4,5]Oxathiazepin-8-yl)Oxazole-5-Carboxamide]
32 | 20 to 30 | 150 to 200 | COc1ccncc1C(=O)Nc1ccc2c(c1)S(=O)(=O)N(c1ccc(C(F)(F)F)cc1)CCO2 [Compound 2323]
33 | 30 to 100 | 150 to 200 | Cc1ccccc1N1CCOc2ccc(NC(=O)c3ncoc3C)cc2S1(=O)=O [Compound 2096, N-(1,1-dioxido-2-(o-tolyl)-3,4-dihydro-2H-benzo[b][1,4,5]oxathiazepin-8-yl)-5-methyloxazole-4-carboxamide]
34 | < 20 | 150 to 200 | O=C(Nc1ccc2c(c1)S(=O)(=O)N(c1ccc(C(F)(F)F)cc1)CCO2)c1ccc(CO)cn1 [Compound 2296]
35 | 20 to 30 | 150 to 200 | O=C(Nc1ccc2c(c1)S(=O)(=O)N(c1ccc(C(F)(F)F)cc1)CCO2)c1cnn2c1CCC2 [Compound 2179]
36 | 20 to 30 | 150 to 200 | O=C(Nc1ccc2c(c1)S(=O)(=O)N(c1ccc(C(F)(F)F)cc1)CCO2)c1cncs1 [Compound 2180]
37 | 30 to 100 | 150 to 200 | Cc1ncoc1C(=O)Nc1ccc2c(c1)S(=O)(=O)N(c1ccc(C(F)F)cc1)CCO2 [Compound 2443]
38 | < 20 | 129 to 149 | Cc1cnn(C)c1C(=O)Nc1ccc2c(c1)S(=O)(=O)N(c1ccc(C(F)(F)F)cc1)CCO2 [Compound 2317]
39 | 30 to 100 | > 200 | O=C(Nc1ccc2c(c1)S(=O)(=O)N(c1ccc(C(F)(F)F)cc1)CCO2)c1cc(=O)cc[nH]1 [Compound 2473]
40 | 30 to 100 | > 200 | NCc1cccc(C(=O)Nc2ccc3c(c2)S(=O)(=O)N(c2ccc(C(F)(F)F)cc2)CCO3)n1 [Compound 2513]
41 | 30 to 100 | 150 to 200 | Cc1ncn(C)c1C(=O)Nc1ccc2c(c1)S(=O)(=O)N(c1ccc(C(F)(F)F)cc1)CCO2 [Compound 2343]
